Measured values published in PubChem BioAssay (NCI).
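Following 48 hours of exposure in 96-well plates, responses at five concentrations were used to interpolate endpoints linearly. TGI is the concentration that stops growth completely.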

Tests used:
Assay in all cases: NCI tumour cell line growth inhibition, 48 h
[1] = test system: MCF7 breast
[2] = test system: HOP-62 NSCLC
[3] = test system: A549 NSCLC
[4] = test system: UO-31 renal
[5] = test system: SF-268 CNS
[6] = test system: CAKI-1 renal
[7] = test system: SK-MEL-2 melanoma
[8] = test system: SN12C renal
[9] = test system: IGROV1 ovarian
[10] = test system: COLO 205 colon
[11] = test system: OVCAR-3 ovarian
[12] = test system: TK-10 renal
[13] = test system: A498 renal
[14] = test system: HL-60(TB) leukemia
[15] = test system: K-562 leukemia
[16] = test system: MDA-N
[17] = test system: MDA-MB-435
[18] = test system: SR leukemia
[19] = test system: SK-MEL-5 melanoma
[20] = test system: CCRF-CEM leukemia
[21] = test system: OVCAR-5 ovarian
[22] = test system: MALME-3M melanoma
[23] = test system: DU-145 prostate
[24] = test system: RXF 393 renal
[25] = test system: OVCAR-8 ovarian
[26] = test system: SK-MEL-28 melanoma
[27] = test system: BT-549 breast
[28] = test system: NCI-H460 lung
[29] = test system: U251 CNS
[30] = test system: HCT-15 colon
[31] = test system: SNB-75 CNS
[32] = test system: SK-OV-3 ovarian
[33] = test system: MOLT-4 leukemia
[34] = test system: UACC-257 melanoma
[35] = test system: EKVX NSCLC
[36] = test system: M14 melanoma
[37] = test system: KM12 colon
[38] = test system: RPMI-8226 leukemia
[39] = test system: 786-0 renal
[40] = test system: HCC-2998 colon
[41] = test system: HCT-116 colon
[42] = test system: HT29 colon
[43] = test system: SNB-19 CNS
[44] = test system: MDA-MB-231 breast
[45] = test system: PC-3 prostate
[46] = test system: UACC-62 melanoma
[47] = test system: SW-620 colon
[48] = test system: ACHN renal
[49] = test system: NCI/ADR-RES ovarian
[50] = test system: SF-539 CNS
[51] = test system: T-47D breast
[52] = test system: NCI-H522 lung
[53] = test system: HOP-92 NSCLC
[54] = test system: SF-295 CNS
[55] = test system: NCI-H226 lung
[56] = test system: NCI-H23 lung
[57] = test system: HS 578T breast
[58] = test system: LOX IMVI melanoma
[59] = test system: OVCAR-4 ovarian

`NC1CC(=O)c2c(Br)csc21` (stereo unspecified) showed a TGI [1] greater than 100 µM, a TGI [2] greater than 100 µM and a TGI [3] greater than 100 µM. It also gave a TGI [4] of 81.2 µM, a TGI [5] greater than 100 µM and a TGI [6] greater than 100 µM. It also gave a TGI [7] greater than 100 µM, a TGI [8] greater than 100 µM and a TGI [9] greater than 100 µM. The TGI [10] was greater than 100 µM, the TGI [11] was greater than 100 µM and the TGI [12] was 96.7 µM. For the same molecule, the TGI [13] was greater than 100 µM, the TGI [14] was 81.9 µM and the TGI [15] was greater than 100 µM. It also gave a TGI [16] greater than 100 µM, a TGI [17] of 66.3 µM and a TGI [18] greater than 100 µM. It also gave a TGI [19] greater than 100 µM, a TGI [20] greater than 100 µM and a TGI [21] greater than 100 µM. It also gave a TGI [22] greater than 100 µM, a TGI [23] greater than 100 µM and a TGI [24] greater than 100 µM. For the same molecule, the TGI [25] was greater than 100 µM, the TGI [26] was 79.9 µM and the TGI [27] was 97.5 µM. For the same molecule, the TGI [28] was greater than 100 µM, the TGI [29] was 53.1 µM and the TGI [30] was greater than 100 µM. It also gave a TGI [31] greater than 100 µM, a TGI [32] greater than 100 µM and a TGI [33] greater than 100 µM. The TGI [34] was greater than 100 µM, the TGI [35] was greater than 100 µM and the TGI [36] was greater than 100 µM. The TGI [37] was greater than 100 µM, the TGI [38] was greater than 100 µM and the TGI [39] was greater than 100 µM. For the same molecule, the TGI [40] was 44.8 µM, the TGI [41] was greater than 100 µM and the TGI [42] was greater than 100 µM. The TGI [43] was greater than 100 µM, the TGI [44] was greater than 100 µM and the TGI [45] was greater than 100 µM. It also gave a TGI [46] of 58.7 µM, a TGI [47] of 77.7 µM and a TGI [48] greater than 100 µM. For the same molecule, the TGI [49] was greater than 100 µM, the TGI [50] was greater than 100 µM and the TGI [51] was greater than 100 µM.
Work on `O=Cc1cn(CCCCCCCCCCCCn2cc(C=O)c3ccccc32)c2ccccc12` yielded a TGI [1] greater than 100 µM, a TGI [52] greater than 100 µM and a TGI [2] greater than 100 µM. For the same molecule, the TGI [3] was greater than 100 µM, the TGI [4] was greater than 100 µM and the TGI [53] was greater than 100 µM. It also gave a TGI [5] greater than 100 µM, a TGI [6] greater than 100 µM and a TGI [7] greater than 100 µM. The TGI [54] was greater than 100 µM, the TGI [8] was greater than 100 µM and the TGI [9] was greater than 100 µM. It also gave a TGI [10] greater than 100 µM, a TGI [11] greater than 100 µM and a TGI [12] greater than 100 µM. It also gave a TGI [13] greater than 100 µM, a TGI [14] greater than 100 µM and a TGI [15] greater than 100 µM. For the same molecule, the TGI [16] was greater than 100 µM, the TGI [17] was greater than 100 µM and the TGI [18] was greater than 100 µM. The TGI [19] was greater than 100 µM, the TGI [21] was greater than 100 µM and the TGI [22] was greater than 100 µM. For the same molecule, the TGI [23] was greater than 100 µM, the TGI [24] was greater than 100 µM and the TGI [25] was greater than 100 µM. The TGI [26] was greater than 100 µM, the TGI [27] was greater than 100 µM and the TGI [29] was greater than 100 µM. The TGI [30] was greater than 100 µM, the TGI [32] was greater than 100 µM and the TGI [33] was greater than 100 µM. It also gave a TGI [34] greater than 100 µM, a TGI [35] greater than 100 µM and a TGI [36] greater than 100 µM. The TGI [39] was greater than 100 µM, the TGI [55] was greater than 100 µM and the TGI [40] was greater than 100 µM. For the same molecule, the TGI [41] was greater than 100 µM, the TGI [42] was greater than 100 µM and the TGI [43] was greater than 100 µM. For the same molecule, the TGI [44] was greater than 100 µM, the TGI [56] was greater than 100 µM and the TGI [45] was greater than 100 µM. The TGI [46] was greater than 100 µM, the TGI [47] was greater than 100 µM and the TGI [48] was greater than 100 µM. It also gave a TGI [49] greater than 100 µM, a TGI [50] greater than 100 µM and a TGI [57] greater than 100 µM. The TGI [58] was greater than 100 µM.
`COC(=O)c1ccc(C(=O)NC(Cc2ccc(Oc3cc(CC(NC(=O)c4ccccc4C(=O)OC)C(=O)OC)ccc3OC)cc2)C(=O)OC)cc1` (stereo unspecified) showed a TGI [1] greater than 100 µM, a TGI [2] greater than 100 µM and a TGI [3] greater than 100 µM. It also gave a TGI [4] greater than 100 µM, a TGI [53] greater than 100 µM and a TGI [5] greater than 100 µM. The TGI [6] was greater than 100 µM, the TGI [7] was greater than 100 µM and the TGI [54] was greater than 100 µM. The TGI [8] was greater than 100 µM, the TGI [9] was greater than 100 µM and the TGI [10] was greater than 100 µM. It also gave a TGI [11] greater than 100 µM, a TGI [12] greater than 100 µM and a TGI [13] greater than 100 µM. The TGI [14] was greater than 100 µM, the TGI [15] was greater than 100 µM and the TGI [16] was greater than 100 µM. It also gave a TGI [17] greater than 100 µM, a TGI [18] greater than 100 µM and a TGI [20] greater than 100 µM. For the same molecule, the TGI [21] was greater than 100 µM, the TGI [22] was greater than 100 µM and the TGI [23] was greater than 100 µM. For the same molecule, the TGI [25] was greater than 100 µM, the TGI [59] was greater than 100 µM and the TGI [26] was greater than 100 µM. For the same molecule, the TGI [27] was greater than 100 µM, the TGI [28] was greater than 100 µM and the TGI [30] was greater than 100 µM. For the same molecule, the TGI [31] was greater than 100 µM, the TGI [32] was greater than 100 µM and the TGI [33] was greater than 100 µM. For the same molecule, the TGI [34] was greater than 100 µM, the TGI [35] was greater than 100 µM and the TGI [36] was greater than 100 µM. The TGI [37] was greater than 100 µM, the TGI [38] was greater than 100 µM and the TGI [39] was greater than 100 µM. It also gave a TGI [55] greater than 100 µM, a TGI [40] greater than 100 µM and a TGI [41] greater than 100 µM. It also gave a TGI [42] greater than 100 µM, a TGI [43] greater than 100 µM and a TGI [56] greater than 100 µM. For the same molecule, the TGI [45] was greater than 100 µM, the TGI [47] was greater than 100 µM and the TGI [48] was greater than 100 µM. It also gave a TGI [49] greater than 100 µM, a TGI [50] greater than 100 µM and a TGI [57] of 39.3 µM. For the same molecule, the TGI [51] was greater than 100 µM and the TGI [58] was greater than 100 µM.
`O=C(C=P(c1ccccc1)(c1ccccc1)c1ccccc1)c1ccc(-c2cccc([N+](=O)[O-])c2)s1` was tested, and the TGI [1] was greater than 100 µM, the TGI [52] was greater than 100 µM and the TGI [2] was greater than 100 µM. It also gave a TGI [3] greater than 100 µM, a TGI [4] greater than 100 µM and a TGI [53] of 81.4 µM. For the same molecule, the TGI [5] was greater than 100 µM, the TGI [6] was greater than 100 µM and the TGI [54] was greater than 100 µM. For the same molecule, the TGI [8] was greater than 100 µM, the TGI [9] was greater than 100 µM and the TGI [10] was 27.9 µM. For the same molecule, the TGI [11] was greater than 100 µM, the TGI [12] was greater than 100 µM and the TGI [13] was 81.9 µM. For the same molecule, the TGI [14] was 59.6 µM, the TGI [15] was greater than 100 µM and the TGI [16] was greater than 100 µM. For the same molecule, the TGI [17] was greater than 100 µM, the TGI [18] was greater than 100 µM and the TGI [19] was 74.2 µM. For the same molecule, the TGI [20] was greater than 100 µM, the TGI [21] was greater than 100 µM and the TGI [22] was greater than 100 µM. The TGI [23] was greater than 100 µM, the TGI [24] was greater than 100 µM and the TGI [25] was greater than 100 µM. It also gave a TGI [59] greater than 100 µM, a TGI [26] greater than 100 µM and a TGI [27] greater than 100 µM. The TGI [28] was greater than 100 µM, the TGI [29] was greater than 100 µM and the TGI [30] was greater than 100 µM. It also gave a TGI [31] of 76.3 µM, a TGI [32] greater than 100 µM and a TGI [33] of 55.6 µM. For the same molecule, the TGI [35] was greater than 100 µM, the TGI [36] was greater than 100 µM and the TGI [37] was greater than 100 µM. It also gave a TGI [38] of 54.9 µM, a TGI [39] greater than 100 µM and a TGI [40] greater than 100 µM. It also gave a TGI [41] greater than 100 µM, a TGI [42] greater than 100 µM and a TGI [43] greater than 100 µM. The TGI [44] was greater than 100 µM, the TGI [56] was greater than 100 µM and the TGI [45] was greater than 100 µM. It also gave a TGI [46] greater than 100 µM, a TGI [47] greater than 100 µM and a TGI [48] greater than 100 µM. For the same molecule, the TGI [49] was greater than 100 µM, the TGI [50] was greater than 100 µM and the TGI [57] was greater than 100 µM. For the same molecule, the TGI [58] was greater than 100 µM.
